The values below are quoted from earlier work in patent US20050175959A1, “System for the controlled delivery of an active material to a dental site” (Coll Partners Ltd., priority 2000, published 2005).

The conditions of this data set: in vivo.

As for `F` [fluoride], the “acute lethal dose of fluoride (F)” value was 33 mg F/Kg body weight and the chronic toxicity was 0.1 mg F/Kg.
